Read-outs that look alike come from different tables or passages of the source.
Columns and labels:
[1] = tested on: MCF10A cells; test: Screen for potentiation of DNA damaging agents (MMS, camptothecin, cis-platinum, 3 aminobenzamide, ionizing radiation); assay type: cell-based, human; conditions: 1 = no sensitization; for MMS: Ratios of IC50 MCF10A: compound alone vs combination with MMS (100 μM)
Source text: The 192 human DNA ligase inhibitors were screened in parallel for effects on proliferation and the ability to potentiate the effects of several DNA damaging agents using two cell human lines, a colon cancer line HCT116 and a normal breast epithelial cell line MCF10A using a Biomek FX Laboratory Automation Workstation as described (23). The DNA damaging agents used, methyl methanesulfonate (MMS), camptothecin, cis-platinum, 3 aminobenzamide and ionizing radiation, are representatives of classes of agents used to treat cancer. Briefly, HCT116 and MCF10A cells were plated in 96 well plates such that the cultures were about 80% confluent after 5 days incubation. Compounds were added to the cultures at either 15 μM or 50 μM 1 day after plating. After incubation for 3 days, cell lysed in a solution containing 1.2% Igepal CA-630 and SYBR green that stains DNA (1:1000, Molecular Probes, Eugene, Oreg.). Subsequently, fluorescence was measured per well. The studies with DNA damaging agents were performed as follows. […] Cultures were incubated for 3 days and then treated as above.

[2] = tested on: HCT116 and MCF10A cells; test: Cell proliferation screen, result stated for one or both cell lines; assay type: cell-based; conditions: Homo sapiens, read-out: IC50 of inhibition of proliferation
[3] = molecular target: human DNA ligase IV (Homo sapiens, UniProt P49917); test: High-throughput fluorescence-based DNA joining (ligation) assay; assay type: biochemical
Summary of the method: (§1)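 Ligation joins an AF488-labelled and a BHQ1-labelled oligonucleotide. After denaturation and renaturation with a 20-fold excess of unlabelled competitor strand, the product forms a quenched hairpin, so joining is read as loss of 518 nm fluorescence. Ligase III used a nicked duplex; ligase IV used two duplexes with short complementary single-strand ends.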

[4] = molecular target: T1, human DNA ligase III (Homo sapiens, UniProt P49916); test: as above; assay type: biochemical
T1 sequence (P49916 1-862 isoform P49916-4): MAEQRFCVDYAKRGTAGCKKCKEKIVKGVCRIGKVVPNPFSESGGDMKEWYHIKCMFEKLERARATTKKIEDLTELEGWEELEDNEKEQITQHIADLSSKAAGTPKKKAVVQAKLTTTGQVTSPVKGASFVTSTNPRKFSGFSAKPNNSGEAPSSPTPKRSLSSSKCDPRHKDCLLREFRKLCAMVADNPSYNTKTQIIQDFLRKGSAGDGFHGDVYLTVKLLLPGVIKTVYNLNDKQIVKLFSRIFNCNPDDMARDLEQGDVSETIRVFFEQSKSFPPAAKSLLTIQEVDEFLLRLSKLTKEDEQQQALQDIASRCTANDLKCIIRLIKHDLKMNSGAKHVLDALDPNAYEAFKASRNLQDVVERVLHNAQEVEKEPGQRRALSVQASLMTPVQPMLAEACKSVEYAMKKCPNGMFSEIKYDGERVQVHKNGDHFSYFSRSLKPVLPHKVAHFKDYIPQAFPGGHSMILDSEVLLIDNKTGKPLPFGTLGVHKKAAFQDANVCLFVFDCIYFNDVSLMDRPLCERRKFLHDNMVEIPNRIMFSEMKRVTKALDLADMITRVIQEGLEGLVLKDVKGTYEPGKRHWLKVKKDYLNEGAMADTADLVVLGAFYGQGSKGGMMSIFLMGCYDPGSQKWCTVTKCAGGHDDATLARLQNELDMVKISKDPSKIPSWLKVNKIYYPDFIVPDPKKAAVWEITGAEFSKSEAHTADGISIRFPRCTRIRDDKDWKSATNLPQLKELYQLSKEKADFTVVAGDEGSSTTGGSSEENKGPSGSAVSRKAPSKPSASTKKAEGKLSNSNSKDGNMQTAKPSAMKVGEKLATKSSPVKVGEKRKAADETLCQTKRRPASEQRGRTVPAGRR
Summary of the method: as §1

[5] = tested on: MCF10A cells; test: MTT cell growth assay; assay type: cell-based, human; conditions: Homo sapiens, MCF-10A
Description: (§2) The activity of hits from the initial screen was further validated using the MTT assay. Briefly, MCF10A and HCT116 cells were seeded in 96 well plates at 300 and 1200 cells per well, respectively, and allowed to adhere overnight. The following day, serial dilutions of compounds in media were added to the cells in a final volume 200 μl. After incubation for 5 days, MTT reagent (3-(4,5-dimthylthiazol-2-yl)-2,5-diphenyltatrazolium) was added and incubation was continued for 4 h. Formazan crystals generated by reduction of the MTT reagent in mitochondria were solubilized with isopropanol prior to the measurement of absorbance at 560 nm wavelength in a plate reader.
To extend the results of the […] cell culture screening assay, a subset of compounds were tested in larger cultures. Different concentrations of Compounds 67 and 151 were added to asynchronous subconfluent populations of HCT116 and MCF10A cells. Asynchronous subconfluent populations of HCT116 and MCF10A cells were pre-treated with different concentrations of compound 64 prior to the addition of 3 aminobenzamide (2 mM) MMS (100 μM) or cis-platinum (1 μM). After incubation for 5 days, cell growth was measured by the MTT assay (16).

[6] = molecular target: T2, hLigI (Homo sapiens, UniProt P18858); test: High-throughput fluorescence-based DNA joining (ligation) assay; assay type: biochemical
T2 construct: made in house
Summary of the method: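 Nicked DNA substrate (10 pmol) was incubated with 0.25 pmol hLigI, with or without 100 μmol/L test compound, in duplicate. Afterwards the DNA was denatured and renatured with a 20-fold excess of unmodified oligonucleotide. Ligation forms an AF488/BHQ1 hairpin, read as reduced fluorescence at 518 nm.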

[7] = tested on: HCT116 cells; test: MTT cell growth assay; assay type: cell-based, human; conditions: Homo sapiens, HCT-116
Description: as §2
After incubation for 5 days, cell growth was measured by the MTT assay (16).

[8] = tested on: HCT116 and MCF10A cells; test: Screen for potentiation of DNA damaging agents, cell line not stated with the result; assay type: cell-based, human; conditions: 50 μM, MMS 100 μM
Source text: (§3) The 192 human DNA ligase inhibitors were screened in parallel for effects on proliferation and the ability to potentiate the effects of several DNA damaging agents using two cell human lines, a colon cancer line HCT116 and a normal breast epithelial cell line MCF10A using a Biomek FX Laboratory Automation Workstation as described (23). The DNA damaging agents used, methyl methanesulfonate (MMS), camptothecin, cis-platinum, 3 aminobenzamide and ionizing radiation, are representatives of classes of agents used to treat cancer. Briefly, HCT116 and MCF10A cells were plated in 96 well plates such that the cultures were about 80% confluent after 5 days incubation. Compounds were added to the cultures at either 15 μM or 50 μM 1 day after plating. After incubation for 3 days, cell lysed in a solution containing 1.2% Igepal CA-630 and SYBR green that stains DNA (1:1000, Molecular Probes, Eugene, Oreg.). Subsequently, fluorescence was measured per well. The studies with DNA damaging agents were performed as follows. […] For ionizing radiation, cells were pre-incubated with the compounds at 50 μM for 1 hour prior to exposure to 2 gray of ionizing radiation. Cultures were incubated for 3 days and then treated as above.

[9] = tested on: HCT116 cells; test: Screen for potentiation of DNA damaging agents (MMS, camptothecin, cis-platinum, 3 aminobenzamide, ionizing radiation); assay type: cell-based, human; conditions: compound alone vs combination with MMS (100 μM); 1 = no sensitization
Source text: as §3

[10] = molecular target: hLigIV/XRCC4 (Homo sapiens, UniProt P49917); test: Radioactive gel-based DNA ligation assay; assay type: biochemical; set-up: concentration or dose not given beside the values
[11] = molecular target: T3, T4 DNA ligase (Enterobacteria phage T4, UniProt P00970); test: High-throughput fluorescence-based DNA joining assay, non-specific inhibitor control; assay type: biochemical, bacteriophage T4
T3 construct: purchased NEB
T3 sequence (P00970 1-487): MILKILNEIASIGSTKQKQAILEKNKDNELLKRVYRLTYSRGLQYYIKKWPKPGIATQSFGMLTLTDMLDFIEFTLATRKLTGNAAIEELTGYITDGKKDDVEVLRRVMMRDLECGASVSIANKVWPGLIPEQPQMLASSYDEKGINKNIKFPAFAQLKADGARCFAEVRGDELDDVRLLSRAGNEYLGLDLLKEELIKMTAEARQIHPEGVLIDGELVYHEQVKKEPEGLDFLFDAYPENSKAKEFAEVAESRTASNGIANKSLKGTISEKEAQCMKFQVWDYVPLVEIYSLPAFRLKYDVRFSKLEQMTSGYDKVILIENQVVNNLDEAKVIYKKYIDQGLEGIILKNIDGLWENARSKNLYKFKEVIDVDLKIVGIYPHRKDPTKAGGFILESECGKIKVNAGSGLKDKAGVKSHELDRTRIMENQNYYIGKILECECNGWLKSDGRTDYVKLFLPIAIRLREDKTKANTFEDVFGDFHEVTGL
Description: Candidate ligase inhibitors identified by CADD were assayed for their ability to inhibit hLigI and T4 DNA ligase using a high-throughput, fluorescence energy transfer-based DNA joining assay (22). Duplicate reactions (30 μL) containing 10 pmol of nicked DNA substrate and either 0.25 pmol of hLigI or 10 units of T4 DNA ligase were incubated in the presence or absence of 100 μmol/L of the putative inhibitor. DNA binding by the candidate DNA ligase inhibitors was measured by displacement of ethidium bromide from DNA as previously described (30).
In addition, to identify compounds that may be non-specific inhibitors of DNA joining, the 192 compounds were also assayed for their ability to inhibit bacteriophage T4 DNA ligase, an enzyme that utilizes the same reaction mechanism as hLigI, has similar adenylation and OB-fold domains but lacks a DBD domain. (6) Although this is also an ATP-dependent DNA ligase, it lacks the domain containing the binding pocket targeted by the in silico screen. Compounds that inhibited T4 DNA ligase were eliminated as non-specific inhibitors that most likely bind to the DNA.

[12] = 100 μM, read-out: % of inhibition @ 100 μM (Helen's data) hLigIV
[13] = read-out: % of inhibition @ 100 μM (Helen's data) hLigIII
[14] = cell growth, compound alone, read-out: IC50 (μM) MCF10A
[15] = sections 'high concentrations (~50 μM)' and 'active in vitro that decreased cell growth', same figures given in μM elsewhere in Table 6, read-out: IC50 MCF10A (head without unit)
[16] = read-out: % of inhibition @ 100 μM (Helen's data) hLigI

T2 sequence (P18858 whole entry): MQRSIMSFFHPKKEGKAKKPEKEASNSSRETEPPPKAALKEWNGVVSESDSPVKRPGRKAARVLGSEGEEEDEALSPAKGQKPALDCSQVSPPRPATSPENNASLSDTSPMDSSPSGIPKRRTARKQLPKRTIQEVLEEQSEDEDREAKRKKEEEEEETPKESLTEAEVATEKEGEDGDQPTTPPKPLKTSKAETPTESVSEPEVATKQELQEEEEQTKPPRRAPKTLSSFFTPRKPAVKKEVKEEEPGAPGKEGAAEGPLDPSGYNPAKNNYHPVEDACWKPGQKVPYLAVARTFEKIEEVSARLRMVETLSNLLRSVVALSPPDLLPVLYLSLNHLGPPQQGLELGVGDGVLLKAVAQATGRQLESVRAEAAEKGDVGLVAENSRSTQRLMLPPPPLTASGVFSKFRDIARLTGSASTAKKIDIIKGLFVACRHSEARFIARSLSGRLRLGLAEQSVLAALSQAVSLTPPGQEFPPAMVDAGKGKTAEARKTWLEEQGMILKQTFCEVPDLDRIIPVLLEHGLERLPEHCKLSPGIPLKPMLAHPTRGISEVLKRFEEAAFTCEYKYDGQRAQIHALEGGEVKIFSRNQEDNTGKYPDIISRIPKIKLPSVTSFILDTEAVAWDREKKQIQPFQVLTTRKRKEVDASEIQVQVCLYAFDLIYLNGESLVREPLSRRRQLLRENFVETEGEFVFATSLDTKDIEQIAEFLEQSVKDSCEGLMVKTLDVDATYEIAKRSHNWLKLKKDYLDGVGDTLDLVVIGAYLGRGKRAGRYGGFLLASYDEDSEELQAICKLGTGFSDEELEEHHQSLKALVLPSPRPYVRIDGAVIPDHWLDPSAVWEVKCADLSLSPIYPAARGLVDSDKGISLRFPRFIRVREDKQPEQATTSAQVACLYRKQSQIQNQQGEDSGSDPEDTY
Chain of human DNA ligase IV (P49917 whole entry): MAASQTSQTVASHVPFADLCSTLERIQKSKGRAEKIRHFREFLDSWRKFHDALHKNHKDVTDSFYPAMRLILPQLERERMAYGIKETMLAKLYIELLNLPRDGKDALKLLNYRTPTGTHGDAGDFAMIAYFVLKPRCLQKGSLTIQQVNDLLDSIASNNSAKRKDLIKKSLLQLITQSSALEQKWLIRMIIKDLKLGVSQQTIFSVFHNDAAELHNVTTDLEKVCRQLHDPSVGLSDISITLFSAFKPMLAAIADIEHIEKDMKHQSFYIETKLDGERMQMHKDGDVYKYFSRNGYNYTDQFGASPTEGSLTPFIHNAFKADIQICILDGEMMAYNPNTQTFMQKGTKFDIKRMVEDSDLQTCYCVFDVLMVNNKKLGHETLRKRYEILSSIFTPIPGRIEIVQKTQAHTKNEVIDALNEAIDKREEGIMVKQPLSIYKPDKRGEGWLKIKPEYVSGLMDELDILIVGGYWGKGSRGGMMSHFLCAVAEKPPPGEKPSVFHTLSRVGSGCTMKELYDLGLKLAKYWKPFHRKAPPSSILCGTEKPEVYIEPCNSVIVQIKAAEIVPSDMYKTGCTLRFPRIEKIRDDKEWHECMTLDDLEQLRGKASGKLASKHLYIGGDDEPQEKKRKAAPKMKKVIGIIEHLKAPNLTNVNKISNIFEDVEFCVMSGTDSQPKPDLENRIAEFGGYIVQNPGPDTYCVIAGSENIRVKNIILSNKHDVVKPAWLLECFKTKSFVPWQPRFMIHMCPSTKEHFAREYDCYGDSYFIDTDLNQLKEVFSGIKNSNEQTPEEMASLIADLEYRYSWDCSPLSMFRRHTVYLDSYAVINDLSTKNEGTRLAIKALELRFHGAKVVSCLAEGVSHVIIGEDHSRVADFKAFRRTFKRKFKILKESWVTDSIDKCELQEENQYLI
Chain of human DNA ligase IV (Q13426 whole entry partner): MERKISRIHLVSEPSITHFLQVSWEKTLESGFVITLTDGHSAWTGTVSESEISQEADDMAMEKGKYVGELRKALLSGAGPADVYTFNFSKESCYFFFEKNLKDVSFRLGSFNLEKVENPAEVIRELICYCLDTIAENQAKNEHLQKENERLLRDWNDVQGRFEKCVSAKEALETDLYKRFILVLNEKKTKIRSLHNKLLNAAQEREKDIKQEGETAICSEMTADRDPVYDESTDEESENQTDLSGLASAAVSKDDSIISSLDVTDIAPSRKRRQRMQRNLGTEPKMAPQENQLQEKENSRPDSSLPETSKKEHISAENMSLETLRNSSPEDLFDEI
Chain of hLigIV/XRCC4 (P49917 whole entry): as the sequence (P49917 whole entry) above
Chain of hLigIV/XRCC4 (Q13426 whole entry partner): as the sequence (Q13426 whole entry partner) above

Compound | MMS: Ratios of IC50 MCF10A [1] | IC50 [2] | inhibition at 100 µM [3, 12] | inhibition at 100 µM [4, 13] | IC50 [5, 14] | IC50 [5, 15] | inhibition at 100 µM [6, 16] | also measured
Nn1cnnc1N/N=C/c1cc([N+](=O)[O-])c(Cl)cc1Cl [Compound 195] | 1.2 | < 20 µM | < 20% | 24% | 3 µM | 3 µM | 26% | 
O=C(Nc1nc2ccccc2s1)c1ccc(Cl)c([N+](=O)[O-])c1 [Compound 165] | 1 | < 20 µM | 37.2% | < 20% | 3 µM | 3 µM | < 20% | % of inhibition @ 100 μM (Helen's data) hLigIV ([3]; 100 μM): 37%
C=CCN1C(=O)/C(=N\NC(=O)c2ccccc2O)c2ccccc21 [Compound 78] | 1.5 | < 20 µM |  | > 20% | 7.5 µM | 7.5 µM |  | IC50 ([7]; cell growth, compound alone, read-out: IC50 (μM) HCT116): 10 µM; IC50 ([7]; sections 'high concentrations (~50 μM)' and 'active in vitro that decreased cell growth', same figures given in μM elsewhere in Table 6, read-out: IC50 HCT116 (head without unit)): 10 µM; enhancement of the cytostatic effect of MMS [8]: enhance the cytostatic effect of MMS; IC50 ratios of non- and 3-AB treated cells MCF10A ([1]; compound alone vs combination with 3-AB (2 mM)): 1; inhibition at 100 µM ([3]; read-out: % of inhibition @ 100 μM (Helen's data) hLigIV): < 20%; MMS: Ratios of IC50 HCT116 [9]: 1
CCn1nc(N)c2c(O)nc(O)cc21 [Compound 93] |  |  |  |  |  |  |  | inhibition at 100 µM ([3]; 100 μM, read-out: In vitro % inhib hLigIV 100): 37 ± 6%; inhibition at 100 µM ([3]; 100 uM, Ø not defined (0 in Table 5A), read-out: % activity Inhibition hLigIV 100 uM): 37.6 ± 6.1%; inhibition of human DNA ligase IV, in words ([3]; in vitro screen): specific for DNA ligase IV; inhibition at 100 µM ([4]; 100 μM, read-out: In vitro % inhib hLigIII 100): 0%; % activity Inhibition hLigIII 100 uM ([4]; 100 uM, Ø not defined (0 in Table 5A)): Ø; % activity Inhibition hLigI 100 uM ([6]; 100 uM): Ø; inhibition at 100 µM ([6]; read-out: In vitro % inhib hLigI 100): 0%; % activity Inhibition hLigIV gel [10]: Ø; % activity Inhibition LigT4 100 uM ([11]; 100 uM): Ø; inhibition at 100 µM ([11]; 100 μM, read-out: In vitro % inhib T4 100): 0%
O=C(O)c1ccccc1Nc1ccc([N+](=O)[O-])c2nonc12 [Compound 16] | 1 | < 20 µM | < 20% | < 20% | 6 µM |  | < 20% | 

Source: patent publication US9757375B2, “Compounds that inhibit human DNA ligases and methods of treating cancer” (University of Maryland, Baltimore, priority 2007, dated 2017)
